Laboratory results from ChEMBL document CHEMBL5620355, “Discovery of intracellular self-assembly protein degraders driven by tumor-specific activatable bioorthogonal reaction” (Eur J Med Chem, 2023).
Activity calls are given as the source filed them. The rule behind the calls is not given here.

How the values were obtained:
[1] = Stability of compound in DMEM medium by HPLC analysis; format: physicochemical
U-87 MG [2] = assay: Induction of cell cycle arrest at S phase in human U87 cells incubated for 48 hrs in presence of 4-(4-(3-(4-chloro-3-(trifluoromethyl)phenyl)ureido)phenoxy)-N-(prop-2-yn-1-yl)picolinamide by PI staining based flow cytometry; format: functional; settings: U-87MG ATCC, dose 0.1-1 µM
U-87 MG [3] = assay: Antiproliferative activity against human U87 cells incubated for 48 hrs in presence of 4-(4-(3-(4-chloro-3-(trifluoromethyl)phenyl)ureido)phenoxy)-N-(prop-2-yn-1-yl)picolinamide by MTT assay; format: functional, cell-based, U-87MG ATCC
[4] = target: Vascular endothelial growth factor receptor 2 (Homo sapiens) (UniProt P35968); assay: Induction of VEGFR2 degradation in human U87 cells at 2 uM incubated for 48 hrs in presence of 4-(4-(3-(4-chloro-3-(trifluoromethyl)phenyl)ureido)phenoxy)-N-(prop-2-yn-1-yl)picolinamide by Western blot analysis; format: cell-based
A549 [5] = assay: Antiproliferative activity against human A549 cells incubated for 48 hrs in presence of 4-(4-(3-(4-chloro-3-(trifluoromethyl)phenyl)ureido)phenoxy)-N-(prop-2-yn-1-yl)picolinamide by MTT assay; format: functional, cell-based; settings: A549, 48 h
[6] = target: T1, Ephrin type-B receptor 4 (Homo sapiens) (UniProt P54760); assay: Induction of EphB4 degradation in human U87 cells upto 10 uM incubated for 48 hrs by Western blot analysis; format: cell-based
T1 sequence (whole entry): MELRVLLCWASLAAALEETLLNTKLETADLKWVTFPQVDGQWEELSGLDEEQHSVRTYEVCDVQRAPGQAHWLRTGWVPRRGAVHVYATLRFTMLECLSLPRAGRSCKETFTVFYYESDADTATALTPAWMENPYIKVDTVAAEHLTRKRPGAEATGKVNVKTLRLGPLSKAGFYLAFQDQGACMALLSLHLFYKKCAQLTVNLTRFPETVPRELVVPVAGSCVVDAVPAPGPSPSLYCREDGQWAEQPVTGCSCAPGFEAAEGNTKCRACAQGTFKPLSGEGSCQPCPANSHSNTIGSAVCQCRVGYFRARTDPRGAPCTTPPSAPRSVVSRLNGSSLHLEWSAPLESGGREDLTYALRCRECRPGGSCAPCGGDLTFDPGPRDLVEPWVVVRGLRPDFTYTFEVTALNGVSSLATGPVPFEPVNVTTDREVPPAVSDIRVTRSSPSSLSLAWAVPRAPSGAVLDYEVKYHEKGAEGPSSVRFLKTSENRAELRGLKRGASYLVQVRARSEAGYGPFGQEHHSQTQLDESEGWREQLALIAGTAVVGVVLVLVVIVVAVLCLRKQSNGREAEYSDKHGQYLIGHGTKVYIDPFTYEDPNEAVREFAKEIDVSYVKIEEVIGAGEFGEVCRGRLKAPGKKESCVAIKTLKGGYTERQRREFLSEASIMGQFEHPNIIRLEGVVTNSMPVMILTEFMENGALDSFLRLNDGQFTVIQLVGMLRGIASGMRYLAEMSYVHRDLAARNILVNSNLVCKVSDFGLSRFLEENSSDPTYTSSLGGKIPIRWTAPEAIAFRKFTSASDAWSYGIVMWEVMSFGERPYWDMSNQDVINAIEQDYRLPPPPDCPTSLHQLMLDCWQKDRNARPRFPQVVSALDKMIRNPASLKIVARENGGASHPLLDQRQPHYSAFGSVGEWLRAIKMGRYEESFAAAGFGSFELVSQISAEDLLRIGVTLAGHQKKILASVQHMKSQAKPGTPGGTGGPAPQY

[7] = target: T1, Ephrin type-B receptor 4 (Homo sapiens); assay: Induction of EphB4 degradation in human U87 cells at 2 uM incubated for 48 hrs in presence of 4-(4-(3-(4-chloro-3-(trifluoromethyl)phenyl)ureido)phenoxy)-N-(prop-2-yn-1-yl)picolinamide by Western blot analysis; format: cell-based
HEK293 [8] = assay: Cytotoxicity against HEK293 cells at low concentration incubated for 48 hrs in presence of 4-(4-(3-(4-chloro-3-(trifluoromethyl)phenyl)ureido)phenoxy)-N-(prop-2-yn-1-yl)picolinamide by MTT assay; format: toxicity, cell-based; settings: human, hek293, 48 h
[9] = target: Platelet-derived growth factor receptor beta (Homo sapiens) (UniProt P09619); assay: Induction of PDGFR-beta degradation in human U87 cells upto 10 uM incubated for 48 hrs by Western blot analysis; format: cell-based
U-87 MG [10] = assay: Antiproliferative activity against human U87 cells incubated for 48 hrs by MTT assay; format: functional, cell-based, U-87MG ATCC
[11] = target: Serine/threonine-protein kinase B-raf (Homo sapiens) (UniProt P15056); assay: Induction of BRAF degradation in human U87 cells upto 10 uM incubated for 48 hrs by Western blot analysis; format: cell-based
HEK293 [12] = assay: Cytotoxicity against HEK293 cells incubated for 48 hrs by MTT assay; format: toxicity, cell-based; settings: human, hek293, 48 h
[13] = target: Vascular endothelial growth factor receptor 2 (Homo sapiens) (UniProt P35968); assay: Induction of VEGFR2 degradation in human U87 cells upto 10 uM incubated for 48 hrs by Western blot analysis; format: cell-based
HEK293 [14] = assay: Cytotoxicity against HEK293 cells at high concentration incubated for 48 hrs in presence of 4-(4-(3-(4-chloro-3-(trifluoromethyl)phenyl)ureido)phenoxy)-N-(prop-2-yn-1-yl)picolinamide by MTT assay; format: toxicity, cell-based; settings: human, hek293, 48 h
A549 [15] = assay: Antiproliferative activity against human A549 cells incubated for 48 hrs by MTT assay; format: functional, cell-based; settings: A549, 48 h
HEK293 [16] = assay: Cytotoxicity against HEK293 cells at high concentration incubated for 48 hrs by MTT assay; format: toxicity, cell-based; settings: human, hek293, 48 h
HEK293 [17] = assay: Cytotoxicity against HEK293 cells at low concentration incubated for 48 hrs by MTT assay; format: toxicity, cell-based; settings: human, hek293, 48 h

Sequence of Vascular endothelial growth factor receptor 2 (Homo sapiens) (P35968 whole entry): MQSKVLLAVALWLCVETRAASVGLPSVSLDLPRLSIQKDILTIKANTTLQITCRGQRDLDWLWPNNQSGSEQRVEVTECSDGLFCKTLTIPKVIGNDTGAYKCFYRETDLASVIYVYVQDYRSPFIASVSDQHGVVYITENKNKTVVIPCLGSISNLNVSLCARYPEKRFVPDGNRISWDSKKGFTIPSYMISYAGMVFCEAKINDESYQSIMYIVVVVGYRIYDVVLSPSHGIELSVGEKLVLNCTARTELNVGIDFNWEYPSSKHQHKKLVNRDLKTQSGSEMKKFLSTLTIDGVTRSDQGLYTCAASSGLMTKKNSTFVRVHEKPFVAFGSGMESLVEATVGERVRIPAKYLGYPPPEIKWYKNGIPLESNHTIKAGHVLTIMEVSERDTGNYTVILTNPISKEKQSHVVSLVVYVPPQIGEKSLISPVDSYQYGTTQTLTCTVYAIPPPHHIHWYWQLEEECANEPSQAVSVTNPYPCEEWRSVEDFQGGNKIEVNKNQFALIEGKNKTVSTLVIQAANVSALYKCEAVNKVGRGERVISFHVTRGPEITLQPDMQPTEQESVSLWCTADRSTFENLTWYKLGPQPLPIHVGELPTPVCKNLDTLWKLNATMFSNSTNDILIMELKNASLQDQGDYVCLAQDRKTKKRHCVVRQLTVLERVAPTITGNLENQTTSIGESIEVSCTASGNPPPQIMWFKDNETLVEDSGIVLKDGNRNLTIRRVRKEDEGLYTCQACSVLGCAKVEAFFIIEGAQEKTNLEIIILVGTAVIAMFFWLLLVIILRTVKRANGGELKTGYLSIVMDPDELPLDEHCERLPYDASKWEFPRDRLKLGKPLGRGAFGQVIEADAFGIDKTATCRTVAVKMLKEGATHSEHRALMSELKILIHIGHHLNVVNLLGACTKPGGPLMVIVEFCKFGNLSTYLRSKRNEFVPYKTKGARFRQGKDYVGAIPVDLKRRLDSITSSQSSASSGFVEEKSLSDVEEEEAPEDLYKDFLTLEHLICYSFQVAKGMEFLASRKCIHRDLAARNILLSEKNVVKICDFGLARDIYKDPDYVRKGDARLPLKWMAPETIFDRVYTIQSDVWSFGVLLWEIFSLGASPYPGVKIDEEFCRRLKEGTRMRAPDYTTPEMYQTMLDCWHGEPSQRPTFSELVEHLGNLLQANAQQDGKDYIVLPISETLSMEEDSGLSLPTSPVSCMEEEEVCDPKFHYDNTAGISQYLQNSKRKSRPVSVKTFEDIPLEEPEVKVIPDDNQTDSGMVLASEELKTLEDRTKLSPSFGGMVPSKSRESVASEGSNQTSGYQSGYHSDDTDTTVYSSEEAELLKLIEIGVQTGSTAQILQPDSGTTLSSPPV
Sequence of Serine/threonine-protein kinase B-raf (Homo sapiens) (P15056 whole entry): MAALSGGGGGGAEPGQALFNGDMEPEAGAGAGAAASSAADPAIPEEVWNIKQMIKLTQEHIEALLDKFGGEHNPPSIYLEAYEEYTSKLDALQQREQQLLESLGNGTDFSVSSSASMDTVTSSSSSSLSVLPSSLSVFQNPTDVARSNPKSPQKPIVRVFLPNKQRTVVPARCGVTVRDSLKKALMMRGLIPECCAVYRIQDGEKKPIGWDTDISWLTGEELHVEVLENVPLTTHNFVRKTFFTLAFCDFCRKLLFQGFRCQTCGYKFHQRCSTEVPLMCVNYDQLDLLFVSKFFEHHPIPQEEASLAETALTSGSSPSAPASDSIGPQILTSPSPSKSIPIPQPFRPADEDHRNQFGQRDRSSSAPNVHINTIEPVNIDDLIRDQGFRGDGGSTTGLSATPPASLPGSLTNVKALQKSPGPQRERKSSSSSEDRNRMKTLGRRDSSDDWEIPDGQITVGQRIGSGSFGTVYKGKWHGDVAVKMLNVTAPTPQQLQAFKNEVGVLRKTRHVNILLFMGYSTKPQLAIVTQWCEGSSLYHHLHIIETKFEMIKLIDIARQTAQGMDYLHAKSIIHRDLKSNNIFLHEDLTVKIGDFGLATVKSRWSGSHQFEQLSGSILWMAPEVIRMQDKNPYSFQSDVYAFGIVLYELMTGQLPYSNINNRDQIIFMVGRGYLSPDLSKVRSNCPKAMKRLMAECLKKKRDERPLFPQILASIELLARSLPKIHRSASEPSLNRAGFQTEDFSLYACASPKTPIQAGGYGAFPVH
Sequence of Platelet-derived growth factor receptor beta (Homo sapiens) (P09619 whole entry): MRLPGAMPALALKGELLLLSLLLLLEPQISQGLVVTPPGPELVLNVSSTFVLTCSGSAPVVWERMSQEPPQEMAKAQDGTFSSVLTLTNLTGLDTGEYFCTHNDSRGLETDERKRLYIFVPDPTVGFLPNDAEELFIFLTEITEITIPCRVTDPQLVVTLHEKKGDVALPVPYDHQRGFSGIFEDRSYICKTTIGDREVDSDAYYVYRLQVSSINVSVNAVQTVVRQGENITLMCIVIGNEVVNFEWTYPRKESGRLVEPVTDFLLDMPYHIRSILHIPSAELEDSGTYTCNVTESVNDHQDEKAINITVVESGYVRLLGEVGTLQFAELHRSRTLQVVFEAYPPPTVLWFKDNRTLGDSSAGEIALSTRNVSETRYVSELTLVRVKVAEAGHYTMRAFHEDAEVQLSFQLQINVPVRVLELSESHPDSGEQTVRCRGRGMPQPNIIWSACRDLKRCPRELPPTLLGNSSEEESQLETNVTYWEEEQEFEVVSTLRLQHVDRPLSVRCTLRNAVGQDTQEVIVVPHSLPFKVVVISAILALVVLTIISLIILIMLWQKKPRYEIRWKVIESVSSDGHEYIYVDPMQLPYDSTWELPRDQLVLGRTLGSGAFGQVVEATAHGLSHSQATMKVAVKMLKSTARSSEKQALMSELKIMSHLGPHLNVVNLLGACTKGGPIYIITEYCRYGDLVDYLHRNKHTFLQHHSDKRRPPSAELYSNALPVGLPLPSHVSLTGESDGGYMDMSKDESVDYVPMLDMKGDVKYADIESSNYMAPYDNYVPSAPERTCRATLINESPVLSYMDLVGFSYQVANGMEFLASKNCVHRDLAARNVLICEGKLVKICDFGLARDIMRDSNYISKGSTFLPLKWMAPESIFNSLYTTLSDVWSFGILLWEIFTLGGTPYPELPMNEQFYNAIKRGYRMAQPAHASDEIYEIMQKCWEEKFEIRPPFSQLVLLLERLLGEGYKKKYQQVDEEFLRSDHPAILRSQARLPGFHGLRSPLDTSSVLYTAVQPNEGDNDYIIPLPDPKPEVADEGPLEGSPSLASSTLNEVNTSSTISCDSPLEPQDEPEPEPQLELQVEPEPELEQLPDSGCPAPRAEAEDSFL

Row | Compound | Stability [1] | Activity (U-87 MG [2]) | IC50 (U-87 MG [3]) [µM] | Activity [4] | IC50 (A549 [5]) [µM] | Activity [6] | Activity [7] | Activity (HEK293 [8]) | Activity [9] | IC50 (U-87 MG [10]) [µM] | Activity [11] | Activity (HEK293 [12]) | Activity [13] | Activity (HEK293 [14]) | IC50 (A549 [15]) [µM] | Activity (HEK293 [16]) | Activity (HEK293 [17])
1 | Nc1cccc2c1C(=O)N(C1CCC(=O)NC1=O)C2=O (stereo not given) [POMALIDOMIDE] | Unstable | – | – | – | – | – | – | – | – | – | – | – | – | – | – | – | –
2 | Cc1ncsc1-c1ccc(CNC(=O)[C@@H]2C[C@@H](O)CN2C(=O)[C@@H](NC(=O)CCCCN=[N+]=[N-])C(C)(C)C)cc1 | Stable | Dose-Dependent Effect | 16 | Active | 1.06 | inactive | Active | Non-Toxic | inactive | > 50 | inactive | Non-Toxic | inactive | Toxic | > 50 | – | –
3 | CNC(=O)c1cc(Oc2ccc(NC(=O)Nc3ccc(Cl)c(C(F)(F)F)c3)cc2)ccn1 [SORAFENIB] | – | – | – | – | – | – | – | – | – | 1.28 | – | – | – | – | 8.26 | Toxic | Non-Toxic
